# Laboratory results reported in patent US11877574B2, “Herbicidal oil dispersion and method” (Arysta LifeScience Inc., priority 2018, dated 2024).
# How the values were obtained:
# [1] = Active ingredient assay and recovery on storage (Table 2); type: physicochemical
# [2] = Active ingredient assay on storage, SCB239-12 (Table 3); type: physicochemical
structure (smiles),measurement,setting,value
"COc1nn(C(=O)[N-]S(=O)(=O)c2ccccc2OC(F)(F)F)c(=O)n1C.[Na+] [Flucarbazone, Flucarbazone Sodium]",Assay (% w/w),"[1]; 1 month storage, 0° C.",1.89 % w/w
same,Assay (% w/w),"[1]; 1 month storage, 40° C.",1.90 % w/w
same,Assay (% w/w),"[1]; 1 month storage, T/C",1.90 % w/w
same,Assay (% w/w),"[1]; 1 month storage, −10° C.",1.90 % w/w
same,Assay (% w/w),"[1]; 2 month storage, 0° C.",1.93 % w/w
same,Assay (% w/w),"[1]; 2 month storage, 40° C.",1.91 % w/w
same,Assay (% w/w),"[1]; 2 month storage, T/C",1.93 % w/w
same,Assay (% w/w),"[1]; 2 month storage, −10° C.",1.93 % w/w
same,Assay (% w/w),"[1]; 2 wks, 54° C.",1.90 % w/w
same,Assay (% w/w),"[1]; 3 month storage, 0° C.",1.98 % w/w
same,Assay (% w/w),"[1]; 3 month storage, 25° C.",1.99 % w/w
same,Assay (% w/w),"[1]; 3 month storage, 40° C.",1.94 % w/w
same,Assay (% w/w),"[1]; 3 month storage, T/C",1.98 % w/w
same,Assay (% w/w),"[1]; 3 month storage, −10° C.",1.99 % w/w
same,Assay (% w/w),"[1]; 6 month storage, 25° C.",1.92 % w/w
same,Assay (% w/w),"[1]; 9 month storage, 25° C.",1.92 % w/w
same,Assay (% w/w),"[1]; 12 month storage, 25° C.",1.92 % w/w
same,Assay (% w/w),[1]; F/T Sample,1.92 % w/w
same,Assay (% w/w),[1]; initial,1.91 % w/w
same,Assay (% w/w),"[2]; 1 month storage, 0° C.",1.81 % w/w
same,Recovery of active ingredient (% of initial assay),"[2]; 1 month storage, 0° C.",99.67 % w/w
same,Assay (% w/w),"[2]; 1 month storage, 40° C.",1.85 % w/w
same,Recovery of active ingredient (% of initial assay),"[2]; 1 month storage, 40° C.",101.98 % w/w
same,Assay (% w/w),"[2]; 1 month storage, T/C",1.83 % w/w
same,Recovery of active ingredient (% of initial assay),"[2]; 1 month storage, T/C",101.13 % w/w
same,Assay (% w/w),"[2]; 2 month storage, 0° C.",′1.81 % w/w
same,Recovery of active ingredient (% of initial assay),"[2]; 2 month storage, 0° C.",99.76 % w/w
same,Assay (% w/w),"[2]; 2 month storage, 40° C.",1.80 % w/w
same,Recovery of active ingredient (% of initial assay),"[2]; 2 month storage, 40° C.",99.54 % w/w
same,Assay (% w/w),"[2]; 2 month storage, T/C",1.82 % w/w
same,Recovery of active ingredient (% of initial assay),"[2]; 2 month storage, T/C",100.35 % w/w
same,Assay (% w/w),"[2]; 2 wks, 54° C.",1.68 % w/w
same,Recovery of active ingredient (% of initial assay),"[2]; 2 wks, 54° C.",92.84 % w/w
same,Assay (% w/w),"[2]; 3 month storage, 0° C.",1.80 % w/w
same,Recovery of active ingredient (% of initial assay),"[2]; 3 month storage, 0° C.",99.13 % w/w
same,Assay (% w/w),"[2]; 3 month storage, 25° C.",1.79 % w/w
same,Recovery of active ingredient (% of initial assay),"[2]; 3 month storage, 25° C.",98.51 % w/w
same,Assay (% w/w),"[2]; 3 month storage, 40° C.",1.72 % w/w
same,Recovery of active ingredient (% of initial assay),"[2]; 3 month storage, 40° C.",95.13 % w/w
same,Assay (% w/w),"[2]; 3 month storage, −10° C.",1.78 % w/w
same,Recovery of active ingredient (% of initial assay),"[2]; 3 month storage, −10° C.",98.44 % w/w
same,Assay (% w/w),[2]; F/T sample,1.80 % w/w
same,Recovery of active ingredient (% of initial assay),[2]; F/T sample,99.26 % w/w
same,Assay (% w/w),[2]; Initial,1.81 % w/w
"CCCCCCC(C)OC(=O)COc1nc(F)c(Cl)c(N)c1Cl (stereo not shown) [Fluroxypyr, Fluroxypyr Meptyl]",Assay (% w/w),"[1]; 1 month storage, 0° C.",11.47 % w/w
same,Assay (% w/w),"[1]; 1 month storage, 40° C.",11.50 % w/w
same,Assay (% w/w),"[1]; 1 month storage, T/C",11.52 % w/w
same,Assay (% w/w),"[1]; 1 month storage, −10° C.",11.49 % w/w
same,Assay (% w/w),"[1]; 2 month storage, 0° C.",11.56 % w/w
same,Assay (% w/w),"[1]; 2 month storage, 40° C.",11.56 % w/w
same,Assay (% w/w),"[1]; 2 month storage, T/C",11.55 % w/w
same,Assay (% w/w),"[1]; 2 month storage, −10° C.",11.55 % w/w
same,Assay (% w/w),"[1]; 2 wks, 54° C.",11.63 % w/w
same,Assay (% w/w),"[1]; 3 month storage, 0° C.",11.63 % w/w
same,Assay (% w/w),"[1]; 3 month storage, 25° C.",11.68 % w/w
same,Assay (% w/w),"[1]; 3 month storage, 40° C.",11.69 % w/w
same,Assay (% w/w),"[1]; 3 month storage, T/C",11.71 % w/w
same,Assay (% w/w),"[1]; 3 month storage, −10° C.",11.71 % w/w
same,Assay (% w/w),"[1]; 6 month storage, 25° C.",11.36 % w/w
same,Assay (% w/w),"[1]; 9 month storage, 25° C.",11.56 % w/w
same,Assay (% w/w),"[1]; 12 month storage, 25° C.",11.63 % w/w
same,Assay (% w/w),[1]; F/T Sample,11.61 % w/w
same,Assay (% w/w),[1]; initial,11.60 % w/w
same,Assay (% w/w),"[2]; 1 month storage, 0° C.",11.25 % w/w
same,Recovery of active ingredient (% of initial assay),"[2]; 1 month storage, 0° C.",99.37 % w/w
same,Assay (% w/w),"[2]; 1 month storage, 40° C.",11.24 % w/w
same,Recovery of active ingredient (% of initial assay),"[2]; 1 month storage, 40° C.",99.33 % w/w
same,Assay (% w/w),"[2]; 1 month storage, T/C",11.25 % w/w
same,Recovery of active ingredient (% of initial assay),"[2]; 1 month storage, T/C",99.36 % w/w
same,Assay (% w/w),"[2]; 2 month storage, 0° C.",11.19 % w/w
same,Recovery of active ingredient (% of initial assay),"[2]; 2 month storage, 0° C.",98.83 % w/w
same,Assay (% w/w),"[2]; 2 month storage, 40° C.",11.13 % w/w
same,Recovery of active ingredient (% of initial assay),"[2]; 2 month storage, 40° C.",98.36 % w/w
same,Assay (% w/w),"[2]; 2 month storage, T/C",11.17 % w/w
same,Recovery of active ingredient (% of initial assay),"[2]; 2 month storage, T/C",98.68 % w/w
same,Assay (% w/w),"[2]; 2 wks, 54° C.",11.26 % w/w
same,Recovery of active ingredient (% of initial assay),"[2]; 2 wks, 54° C.",99.48 % w/w
same,Assay (% w/w),"[2]; 3 month storage, 0° C.",11.23 % w/w
same,Recovery of active ingredient (% of initial assay),"[2]; 3 month storage, 0° C.",99.21 % w/w
same,Assay (% w/w),"[2]; 3 month storage, 25° C.",11.20 % w/w
same,Recovery of active ingredient (% of initial assay),"[2]; 3 month storage, 25° C.",98.92 % w/w
same,Assay (% w/w),"[2]; 3 month storage, 40° C.",11.21 % w/w
same,Recovery of active ingredient (% of initial assay),"[2]; 3 month storage, 40° C.",99.04 % w/w
same,Assay (% w/w),"[2]; 3 month storage, −10° C.",11.13 % w/w
same,Recovery of active ingredient (% of initial assay),"[2]; 3 month storage, −10° C.",98.30 % w/w
same,Assay (% w/w),[2]; F/T sample,11.28 % w/w
same,Recovery of active ingredient (% of initial assay),[2]; F/T sample,99.68 % w/w
same,Assay (% w/w),[2]; Initial,11.32 % w/w
